{"source": "paper PMC6754133", "about": "(PLoS ONE, 2019)", "key": {"[1]": {"system": "Mast/stem cell growth factor receptor Kit (KIT_HUMAN)", "parameters": "method as in earlier work", "details": "S2/S3 Table; ref [1] Davis MI et al., Nat Biotechnol. 2011; cited from earlier work"}, "[2]": {"system": "Platelet-derived growth factor receptor alpha (PGFRA_HUMAN)", "parameters": "method as in earlier work", "details": "S2/S3 Table; ref [1] Davis MI et al., Nat Biotechnol. 2011; cited from earlier work"}, "[3]": {"system": "Gli-target genes in MB-PDX cells", "test": "qRT-PCR of Gli-target genes in MB-PDX cells in vitro", "type": "cell-based, human", "details": "10 uM in-vitro, 24 hours", "source_text": "The results from three independent replicates were used for quantitative analysis and are represented in Fig 7c.\nY-axes show the relative expression levels of mRNA of target genes with respect to mRNA of GAPDH gene."}, "[4]": {"details": "cited from earlier work"}, "[5]": {"system": "firefly luciferase under control of cAMP response element (CRE)", "test": "CRE-luciferase counter assay in HEK293s cells", "type": "cell-based", "details": "different concentrations", "protocol": "(a) The drugs were tested at different concentrations in HEK293s cells stably transfected with firefly luciferase under control of cAMP response element (CRE) (pGL4.29[luc2P/CRE/Hygro], Promega). […] Raw, non-normalized luminescence values are presented, to facilitate the assessment of the extent of inhibition. Shown is a single representative experiment out of the multiple experiments performed on different days. (Mean ± SD)"}, "DAOY cells [6]": {"system": "DAOY cells", "test": "cells", "details": "Homo sapiens, 72 h, read-out: Cell viability assay IC50"}, "[7]": {"biological_target": "Mitogen-activated protein kinase MLT (MLTK_HUMAN)", "parameters": "method as in earlier work", "details": "S3 Table; ref [1] Davis MI et al., Nat Biotechnol. 2011; cited from earlier work"}, "[8]": {"biological_target": "Carbonic anhydrase 9 (CAH9_HUMAN)", "details": "S2/S3 Table; ref [2] Parkkila S et al., Bioorg Med Chem Lett. 2009; cited from earlier work"}, "mSMO": {"biological_target": "T1, mSMO (Mus musculus, UniProt P56726)", "T1 construct": "host or cells: HEK293T", "T1 sequence (P56726 33-793)": "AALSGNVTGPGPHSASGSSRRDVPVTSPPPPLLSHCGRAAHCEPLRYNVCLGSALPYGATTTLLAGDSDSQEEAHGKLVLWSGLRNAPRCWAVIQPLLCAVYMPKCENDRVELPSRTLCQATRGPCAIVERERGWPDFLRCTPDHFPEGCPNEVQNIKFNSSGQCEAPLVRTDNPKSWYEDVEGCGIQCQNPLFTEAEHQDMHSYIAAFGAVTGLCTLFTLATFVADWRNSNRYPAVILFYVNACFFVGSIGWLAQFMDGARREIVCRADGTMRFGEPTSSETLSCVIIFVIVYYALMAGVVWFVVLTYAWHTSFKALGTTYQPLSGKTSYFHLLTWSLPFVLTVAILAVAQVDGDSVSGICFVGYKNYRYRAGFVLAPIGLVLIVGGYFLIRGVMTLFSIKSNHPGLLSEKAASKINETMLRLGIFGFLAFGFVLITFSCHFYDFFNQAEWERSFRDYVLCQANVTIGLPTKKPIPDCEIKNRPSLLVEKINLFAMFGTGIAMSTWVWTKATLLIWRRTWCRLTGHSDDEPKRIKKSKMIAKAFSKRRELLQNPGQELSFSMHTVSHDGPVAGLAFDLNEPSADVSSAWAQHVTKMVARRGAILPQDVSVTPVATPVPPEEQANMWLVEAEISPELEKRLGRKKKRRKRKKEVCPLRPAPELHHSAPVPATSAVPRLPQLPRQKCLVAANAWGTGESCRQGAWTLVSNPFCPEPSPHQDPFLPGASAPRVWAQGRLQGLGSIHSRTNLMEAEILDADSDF", "test": "BODIPY-Cyclopamine competition binding assay, flow cytometry, HEK293T cells transiently transfected with mSMO", "details": "BODIPY-Cyclopamine 5 nM", "protocol": "Prior to transfection, cell culture media was replaced with DMEM + 10%FBS for mSMO transfection and with DMEM + 10%BCS for ShhN transfection. The transfected dish was incubated for approximately 24 hours at 37°C. For the production of ShhN conditioned medium, the culture medium from ShhN-transfected HEK293T cells was collected, aliquoted in single use 1.5 mL Eppendorf tubes and either used fresh or stored at -20°C.\nHEK293T cells transiently transfected with mSMO were lifted with trypsin (0.25%) and replated at 6×10^4 cells in 80 μL DMEM + 10%FBS per well in a 96 well tissue-culture treated plate (Falcon, 353219). The plate was incubated at 37°C for 24 hours. Serial dilutions of test compounds (10x final concentrations) were prepared in culture media. 10 μL of diluted compounds or control media were added to the plate after which the plate was incubated at 37°C for 10 min. […] Following at least 1.5 hours incubation at 37°C in 5% CO2, cells were lifted by vigorous pipetting, transferred to conical bottom 96-well plates, and centrifuged at 400 × g for 5 min at 4°C. Supernatant was discarded, cells were re-suspended in 300 μL of PBS + 0.5% BSA (freshly prepared), and the plate was analyzed with Guava benchtop flow cytometer. The results were interpreted with FlowJo software (version v10.1). Dose response curves were constructed in Prism 6 (GraphPad Software, La Jolla, CA)."}, "[9]": {"system": "Platelet-derived growth factor receptor beta (PGFRB_HUMAN)", "parameters": "method as in earlier work", "details": "S2/S3 Table; ref [1] Davis MI et al., Nat Biotechnol. 2011; cited from earlier work"}, "[10]": {"biological_target": "Carbonic anhydrase 1 (CAH1_HUMAN)", "details": "S2/S3 Table; ref [2] Parkkila S et al., Bioorg Med Chem Lett. 2009; cited from earlier work"}, "DAOY cells [11]": {"system": "DAOY cells", "test": "Neurosphere formation assay", "type": "cell-based, human", "details": "Homo sapiens, Daoy, 168 h, read-out: Inhibition of NS formation, wells"}, "MB-PDX cells": {"system": "MB-PDX cells", "test": "cells", "details": "Homo sapiens, 72 h, read-out: Cell viability assay IC50"}, "Hh/SMO pathway": {"system": "Hh/SMO pathway", "test": "Gli-Luciferase functional assay, NIH 3T3 Gli-RE cells stimulated with ShhN", "type": "cell-based", "protocol": "After 24 hours, when the cells reached confluency, the culture medium was replaced with 80 μL per well of assay medium [Optimem ± 10 mM HEPES ± 1 mM Sodium Pyruvate + 1× MEM NEAA]. […] Then the cells were stimulated by addition of either ShhN-conditioned media or control media (DMEM±10%BCS) at a final concentration of 10%. Following incubation of the plate for at least 28 hours at 37°C, the cells were simultaneously lysed and supplemented with a luciferase substrate by addition of equal volume of Steady-Glo reagent (Promega, E2520) directly to the assay media. Plates were mixed by pipetting, centrifuged to eliminate foam, incubated for 10 minutes, and analyzed using Perkin Elmer Viktor X luminescence plate reader. The results were analyzed using a non-linear regression (Prism 6, GraphPad Software, La Jolla, CA). Data were normalized to the maximal response observed for ShhN-stimulated cells in the same experiment. A sigmoidal-dose response curve was used as a model for data analysis and IC50 value calculation."}, "[12]": {"biological_target": "Abelson tyrosine-protein kinase 2 (ABL2_HUMAN)", "details": "S2/S3 Table; ref [1] Davis MI et al., Nat Biotechnol. 2011; cited from earlier work"}}, "note": "Like-named read-outs stand apart in the source and are kept apart here."}
{"smiles": "Cc1cn(-c2cc(NC(=O)c3ccc(C)c(Nc4nccc(-c5cccnc5)n4)c3)cc(C(F)(F)F)c2)cn1", "note": "[Nilotinib]", "values": [{"measurement": "Kd/Ki Value", "setting": "[1]", "value": 0.029, "unit": "µM"}, {"measurement": "Kd/Ki Value", "setting": "[2]", "value": 0.18, "unit": "µM"}, {"measurement": "mRNA expression of Gli-target genes", "setting": "[3]", "value": "decreased expression of GLI1, NMYC, HHIP and BCL2 genes"}, {"measurement": "Trough concentration, Cmin", "setting": "[4]; clinically achievable concentrations", "value": "1600 to 2600", "unit": "nM"}, {"measurement": "Average Cmin", "setting": "[4]; human plasma", "value": 2600, "unit": "nM"}, {"measurement": "Cmax", "setting": "[4]; human plasma", "value": 3300, "unit": "nM"}, {"measurement": "Trough concentration (Cmin) in human plasma", "setting": "[4]; standard dosing of 400 mg twice daily", "value": "1650 to 2380", "unit": "nM"}, {"measurement": "Effect on CRE-driven luciferase activity (independent of SMO)", "setting": "[5]", "value": "lack of dose-dependent effect"}, {"measurement": "IC50", "setting": "DAOY cells [6]", "value": 6, "unit": "µM"}, {"measurement": "Kd/Ki Value", "setting": "[7]", "value": 0.011, "unit": "µM"}, {"measurement": "Kd/Ki Value", "setting": "[8]", "value": 0.0419, "unit": "µM"}, {"measurement": "Displacement of BODIPY-Cyclopamine from SMO (in words)", "setting": "mSMO", "value": "displace BODIPY-Cyclopamine"}, {"measurement": "IC50", "setting": "mSMO; HEK293T cells transfected with mSMO, n = 2, estimated, read-out: SMO binding IC50", "value": 3.11, "unit": "µM"}, {"measurement": "Kd/Ki Value", "setting": "[9]", "value": 0.073, "unit": "µM"}, {"measurement": "Kd/Ki Value", "setting": "[10]", "value": 0.0293, "unit": "µM"}, {"measurement": "inhibition at 10 µM", "setting": "DAOY cells [11]", "value": "> 90", "unit": "%"}, {"measurement": "IC50", "setting": "MB-PDX cells", "value": 5, "unit": "µM"}, {"measurement": "IC50", "setting": "Hh/SMO pathway; Mus musculus, NIH3T3, read-out: Hh/SMO pathway inhibition IC50, NIH3T3 Gli-RE cells, ShhN-conditioned media, n = 3", "value": 0.374, "unit": "µM"}, {"measurement": "Inhibition of ShhN-induced Hh signaling (in words)", "setting": "Hh/SMO pathway; NIH 3T3 Gli-RE cells, ShhN stimulated", "value": "inhibited ShhN-induced Hh signaling in a dose-dependent manner"}, {"measurement": "Span of concentration response curve", "setting": "Hh/SMO pathway; data as percent of the maximum luminescence in the absence of antagonists, Fig 4", "value": 95.05}, {"measurement": "IC50", "setting": "Hh/SMO pathway; read-out: Hh/SMO pathway inhibition IC50, NIH3T3 Gli-RE cells, ShhN-conditioned media, n = 3", "value": 0.374, "unit": "µM"}, {"measurement": "Kd/Ki Value", "setting": "[12]", "value": 0.026, "unit": "µM"}]}
